# Experimental data as given in patent publication EP1561465A2, “Methods of use of fluoroquinolone compounds against bacteria” (LG Life Sciences, Ltd., priority 1999, dated 2001).
# Like-named read-outs stand apart in the source and are kept apart here.
# Tests used:
# Assay type in all cases: cell-based
# Streptococcus pneumoniae = experiment: MIC by agar dilution (NCCLS), 411 isolates Buenos Aires 1998-99; details: for MIC90 / MIC: Streptococcus pneumoniae; for MIC: Ciprofloxacin-resistant S. pneumoniae, read-out: MIC
# Serratia marcescens = experiment: MIC by NCCLS broth microdilution, 1100 Japanese clinical isolates 1997-1998; details: Serratia marcescens (n=30)
# Klebsiella pneumoniae [1] = experiment: as above; details: Klebsiella pneumoniae (n=35)
# Pseudomonas aeruginosa = experiment: MIC by agar dilution (NCCLS), 322 nosocomial Gram negative isolates, Athens 1998; details: n = 57 isolates
# Staphylococcus aureus [2] = experiment: MIC by agar dilution (NCCLS), 411 isolates Buenos Aires 1998-99; details: for MIC90: Staphylococcus aureus
# Enterobacter spp. = experiment: MIC by agar dilution (NCCLS), 322 nosocomial Gram negative isolates, Athens 1998; details: n = 57 isolates
# Citrobacter freundii = experiment: MIC by NCCLS broth microdilution, 1100 Japanese clinical isolates 1997-1998
# [3] = test system: Staphylococcus epidermidis; experiment: as above; details: for MIC50 / MIC90: Staphylococcus epidermidis
# Staphylococcus aureus [4] = experiment: MIC by agar macrodilution (NCCLS), 373 Gram positive isolates, Athens 1998; details: Methicillin-susceptible Staphylococcus aureus (n = 85)
# Streptococcus pyogenes = experiment: MIC by agar dilution (NCCLS), 411 isolates Buenos Aires 1998-99
# Proteus mirabilis = experiment: MIC by agar dilution (NCCLS), 322 nosocomial Gram negative isolates, Athens 1998; details: Proteus mirabilis; n = 57 isolates
# Aeromonas spp. = experiment: MIC by agar dilution (NCCLS M7-A4), 288 enteropathogenic isolates, gemifloxacin and 15 other antimicrobials; details: Aeromonas spp. N= 16
# [5] = test system: Gram negative anaerobic pathogens and facultative anaerobic pathogens; experiment: MIC by agar dilution, Brucella HK agar with 5% laked sheep blood, anaerobic reference strains
# Moraxella catarrhalis = experiment: MIC by two-fold serial agar dilution, Sensitivity Disk agar-N (Kitasato isolates); details: Moraxella catarrhalis (22)
# Enterococcus faecalis = experiment: MIC by NCCLS broth microdilution, 1100 Japanese clinical isolates 1997-1998; details: for MIC50 / MIC90: Enterococcus faecalis; for MIC90: read-out: MIC90
# Klebsiella pneumoniae [6] = experiment: MIC by agar dilution (NCCLS), 322 nosocomial Gram negative isolates, Athens 1998; details: n = 56 isolates
# [7] = test system: Streptococcus pneumoniae and Haemophilus influenzae; experiment: MIC by broth microdilution (NCCLS), all isolates pooled
# Shigella spp. = experiment: MIC by agar dilution (NCCLS M7-A4), 288 enteropathogenic isolates, eight quinolones; details: Shigella spp. (n = 21)
# Acinetobacter spp. = experiment: MIC by agar dilution (NCCLS), 322 nosocomial Gram negative isolates, Athens 1998; details: n = 38 strains
# Haemophilus influenzae = experiment: MIC by two-fold serial agar dilution, Sensitivity Disk agar-N (Kitasato isolates); details: Haemophilus influenzae (24)
# Enterococcus faecium = experiment: MIC by NCCLS broth microdilution, 1100 Japanese clinical isolates 1997-1998; details: for MIC: Enterococcus faecium
# Enterococcus gallinarum = experiment: as above; details: Enterococcus gallinarum, GALLINARUM
# [8] = S. aureus, Methicillin resistant (n = 14)
# [9] = S. aureus, Methicillin susceptible (n = 66)
# [10] = Staphylococcus epidermidis oxacillin resistant (n=43)
# [11] = Staphylococcus epidermidis oxacillin susceptible (n=35)
# [12] = Enterococcus faecalis ciprofloxacin resistant (n=15)
# [13] = Enterococcus faecalis ciprofloxacin susceptible (n=24)
structure (smiles),measurement,setting,value
"N[C@@H]1[C@H]2CN(c3nc4c(cc3F)c(=O)c(C(=O)O)cn4-c3ccc(F)cc3F)C[C@@H]12 [Trovafloxacin, trovafloxacin]",MIC90,Streptococcus pneumoniae,0.125 µg/mL
same,MIC Range,Streptococcus pneumoniae; Streptococcus pneumoniae (n = 90),0.016 to 1 µg/mL
same,MIC,Streptococcus pneumoniae; Strain 1,0.25 µg/mL
same,MIC,Streptococcus pneumoniae; Strain 2,0.025 µg/mL
same,MIC,Streptococcus pneumoniae; Strain 3,1 µg/mL
same,MIC,Streptococcus pneumoniae; Strain 4,1 µg/mL
same,MIC90,"Streptococcus pneumoniae; S. pneumoniae, Penicillin intermediate (n = 17), read-out: MIC90",0.25 µg/mL
same,MIC90,"Streptococcus pneumoniae; S. pneumoniae, Penicillin susceptible (n = 69), read-out: MIC90",0.25 µg/mL
same,MIC90,"Streptococcus pneumoniae; Streptococcus pneumoniae (n = 90), read-out: MIC90",0.25 µg/mL
same,MIC90,Serratia marcescens,2 µg/mL
same,MIC50,Serratia marcescens; read-out: MIC50,0.25 µg/mL
same,MIC50,Klebsiella pneumoniae [1],0.032 µg/mL
same,MIC Range,Klebsiella pneumoniae [1],≤0.008 to 1 µg/mL
same,MIC90,Klebsiella pneumoniae [1]; read-out: MIC90,0.063 µg/mL
same,MIC50,Pseudomonas aeruginosa,2 µg/mL
same,MIC90,Pseudomonas aeruginosa,> 64 µg/mL
same,Resistance (%),Staphylococcus aureus [2]; [8],7%
same,Resistance (%),Staphylococcus aureus [2]; [9],0%
same,MIC Range,Staphylococcus aureus [2]; Staphylococcus aureus (n = 80),≤0.004 to 8 µg/mL
same,MIC90,Staphylococcus aureus [2]; [8],4 µg/mL
same,MIC90,Staphylococcus aureus [2]; [9],0.06 µg/mL
same,MIC90,Staphylococcus aureus [2]; Staphylococcus aureus (n = 80),2 µg/mL
same,MIC50,"Enterobacter spp.; Enterobacter, read-out: MIC50",0.125 µg/mL
same,MIC90,"Enterobacter spp.; Enterobacter, read-out: MIC90",16 µg/mL
same,MIC Range,Enterobacter spp.,≤0.03 to 64 µg/mL
same,MIC50,Citrobacter freundii; Citrobacter freundii,0.125 µg/mL
same,MIC90,Citrobacter freundii; Citrobacter freundii (n=39),2 µg/mL
same,MIC Range,Citrobacter freundii; Citrobacter freundii (n=39),≤0.008 to 4 µg/mL
same,MIC Range,[3]; [10],0.032 to 8 µg/mL
same,MIC Range,[3]; [11],≤0.008 to 2 µg/mL
same,MIC50,[3]; [10],1 µg/mL
same,MIC90,[3]; [10],2 µg/mL
same,MIC50,[3]; [11],0.032 µg/mL
same,MIC90,[3]; [11],1 µg/mL
same,MIC Range,Staphylococcus aureus [4],≤0.03 to 2 µg/mL
same,MIC50,Staphylococcus aureus [4]; read-out: MIC50,0.06 µg/mL
same,MIC90,Staphylococcus aureus [4]; read-out: MIC90,0.125 µg/mL
same,MIC90,Streptococcus pyogenes; Streptococcus pyogenes,0.125 µg/mL
same,MIC Range,Streptococcus pyogenes; Streptococcus pyogenes (n = 69),0.06 to 1 µg/mL
same,MIC50,Proteus mirabilis,0.25 µg/mL
same,MIC90,Proteus mirabilis,16 µg/mL
same,MIC (mg/L) Range,Aeromonas spp.,≤0.015 to 0.25 mg/L
same,MIC,Aeromonas spp.; read-out: MIC (mg/L) 50%,≤ 0.015 mg/L
same,MIC,Aeromonas spp.; read-out: MIC (mg/L) 90%,0.03 mg/L
same,MIC,[5],0.125 µg/mL
same,MIC,"[5]; Bacteroides eggerthii, ATCC27754, Bacteroides eggerthii ATCC27754, read-out: MIC",0.5 µg/mL
same,MIC,[5]; Bacteroides fragilis,0.125 µg/mL
same,MIC,[5]; Bacteroides fragilis GA-I0558,0.125 µg/mL
same,MIC,"[5]; Bacteroides fragilis, ATCC25285",0.125 µg/mL
same,MIC,"[5]; Bacteroides fragilis, Bacteroides fragilis GA-I7955, read-out: MIC",0.25 µg/mL
same,MIC,"[5]; Bacteroides fragilis, Bacteroides fragilis GAI10150, read-out: MIC",0.25 µg/mL
same,MIC,"[5]; Bacteroides fragilis, Bacteroides fragilis GAI30079, read-out: MIC",0.5 µg/mL
same,MIC,"[5]; Bacteroides fragilis, Bacteroides fragilis GAI30144, read-out: MIC",0.25 µg/mL
same,MIC,"[5]; Bacteroides fragilis, NCTC10581, Bacteroides fragilis NCTC10581, read-out: MIC",0.25 µg/mL
same,MIC,"[5]; Bacteroides ovatus, ATCC8483, Bacteroides ovatus ATCC8483, read-out: MIC",0.5 µg/mL
same,MIC,"[5]; Bacteroides thetaiotaomicron, ATCC29741, Bacteroides thetaiotaomicron ATCC29741, read-out: MIC",0.5 µg/mL
same,MIC,"[5]; Bilophilla wadsworthia WAL7959, read-out: MIC",0.5 µg/mL
same,MIC,"[5]; Campylobacter gracilis, JCM8538, Campylobacter gracilis JCM8538, read-out: MIC",≤ 0.03 µg/mL
same,MIC,"[5]; Campylobacter ureolyticus, NCTC10941, Bacteroides ureolyticus NCTC10941, read-out: MIC",≤ 0.03 µg/mL
same,MIC,"[5]; Capnocytophaga ochracea, Capnocytophaga ochracea GAI5586, read-out: MIC",≤ 0.03 µg/mL
same,MIC,"[5]; Fusobacterium necrophorum, ATCC25286, Fusobacterium necrophorum ATCC25286, read-out: MIC",0.25 µg/mL
same,MIC,"[5]; Fusobacterium nucleatum, ATCC25586, Fusobacterium nucleatum ATCC25586, read-out: MIC",0.5 µg/mL
same,MIC,"[5]; Fusobacterium varium, ATCC8501, Fusobacterium varium ATCC8501, read-out: MIC",4 µg/mL
same,MIC,"[5]; Hoylesella oralis, ATCC33269, Prevotella oralis ATCC33269, read-out: MIC",2 µg/mL
same,MIC,"[5]; Parabacteroides distasonis, ATCC8503, Bacteroides distasonis ATCC8503, read-out: MIC",0.5 µg/mL
same,MIC,"[5]; Phocaeicola vulgatus, ATCC8482, Bacteroides vulgatus ATCC8482, read-out: MIC",0.5 µg/mL
same,MIC,"[5]; Porphylomonas gingivalis ATCC33277, read-out: MIC",≤ 0.03 µg/mL
same,MIC,"[5]; Porphyromonas asaccharolytica, ATCC25260",0.125 µg/mL
same,MIC,"[5]; Prevotella bivia, ATCC29303, Prevotella bivia ATCC29303, read-out: MIC",2 µg/mL
same,MIC,"[5]; Prevotella buccaeATCC33574, read-out: MIC",0.5 µg/mL
same,MIC,"[5]; Prevotella heparinolytica, ATCC35895",0.125 µg/mL
same,MIC,"[5]; Sutterella wadsworthensis, ATCC51579, Sutterella wadsworthensis ATCC51579, read-out: MIC",0.25 µg/mL
same,MIC,"[5]; Veillonella dispar, ATCC17748",0.125 µg/mL
same,MIC,"[5]; Veillonella parvula, ATCC10790, Veillonella parvula ATCC10790, read-out: MIC",0.25 µg/mL
same,MIC50,Moraxella catarrhalis,0.016 µg/mL
same,MIC90,Moraxella catarrhalis,0.031 µg/mL
same,MIC Range,Moraxella catarrhalis,0.016 to 0.031 µg/mL
same,MIC Range,Enterococcus faecalis; [12],0.25 to 16 µg/mL
same,MIC Range,Enterococcus faecalis; [13],0.25 to 0.5 µg/mL
same,MIC50,Enterococcus faecalis; [12],4 µg/mL
same,MIC90,Enterococcus faecalis; [12],16 µg/mL
same,MIC50,Enterococcus faecalis; [13],0.25 µg/mL
same,MIC90,Enterococcus faecalis; [13],0.25 µg/mL
same,MIC50,Klebsiella pneumoniae [6]; Klebsiella pneumoniae,0.125 µg/mL
same,MIC90,Klebsiella pneumoniae [6]; Klebsiella pneumoniae,1 µg/mL
same,MIC Range,Klebsiella pneumoniae [6],≤0.03 to 16 µg/mL
same,MIC90,"[7]; all (380) isolates tested (235 S. pneumoniae, 145 H. influenzae)",0.12 µg/mL
same,MIC90,[7]; all isolates tested (602),0.25 µg/mL
same,% Susceptible,Shigella spp.,100%
same,MIC50,Shigella spp.,≤ 0.015 µg/mL
same,MIC90,Shigella spp.,≤ 0.015 µg/mL
same,MIC Range,Shigella spp.,≤0.015 µg/mL
same,MIC50,Acinetobacter spp.; Acinetobacter,2 µg/mL
same,MIC90,Acinetobacter spp.; Acinetobacter,16 µg/mL
same,MIC Range,Acinetobacter spp.,≤0.03 to 32 µg/mL
same,MIC50,Haemophilus influenzae,0.016 µg/mL
same,MIC90,Haemophilus influenzae,0.031 µg/mL
same,MIC Range,Haemophilus influenzae,≤0.004 to 0.031 µg/mL
same,MIC50,Enterococcus faecium; Enterococcus faecium (n=39),16 µg/mL
same,MIC90,Enterococcus faecium; Enterococcus faecium (n=39),64 µg/mL
same,MIC Range,Enterococcus faecium; Enterococcus faecium (n=39),0.25 to 64 µg/mL
same,MIC,"Enterococcus faecium; Enterococcus faecium (vanA) vancomycin resistant, strain TMS1",8 µg/mL
same,MIC,"Enterococcus faecium; Enterococcus faecium (vanA) vancomycin resistant, strain TMS2",1 µg/mL
same,MIC,"Enterococcus faecium; Enterococcus faecium (vanA) vancomycin resistant, strain TMS3",8 µg/mL
same,MIC,"Enterococcus faecium; Enterococcus faecium (vanA) vancomycin resistant, strain TMS4",8 µg/mL
same,MIC,"Enterococcus faecium; Enterococcus faecium (vanA) vancomycin resistant, strain TMS5",2 µg/mL
same,MIC,"Enterococcus faecium; Enterococcus laecium (van B) vancomycin resistant, strain TMS6",32 µg/mL
same,MIC,"Enterococcus faecium; Enterococcus laecium (van B) vancomycin resistant, strain TMS7",32 µg/mL
same,MIC,Enterococcus gallinarum,0.125 µg/mL
same,MIC,"Enterococcus gallinarum; Enterococcus gallinarum (vanC1), strain TMS2, read-out: MIC",0.25 µg/mL
same,MIC,"Enterococcus gallinarum; Enterococcus gallinarum (vanC1), strain TMS3, read-out: MIC",0.25 µg/mL
same,MIC,"Enterococcus gallinarum; Enterococcus gallinarum (vanC1), strain TMS4, read-out: MIC",0.063 µg/mL
